The record followed here is patent publication US20080318954A1, “Compounds” (Cyclacel Limited, priority 2004, published 2008).

For orientation: EC50 means the midpoint of the concentration-response curve.

In test [1] the test system is glycogen synthase activity in L6 rat myocytes. Put plainly: Glycogen synthase (GS) assay in L6 rat myocytes. It counts as cell-based. As to the method:
Rat skeletal muscle myoblasts L6/G8.C5 were seeded at 2.4×10^5 cells per 10 cm dish in DMEM 10% foetal calf serum (FCS), containing penicillin/streptomycin. When 90% confluence was reached the medium was exchanged with α MEM, supplemented with 2%
FCS and penicillin/streptomycin. Medium was refreshed every 48 hours and 4-7 days later the myocytes were formed.
Cells on 10 cm dishes (Human Embryonic Kidney (HEK) 293 cells, L6 rat myocytes, or 3T3 mouse adipocytes) were treated with different concentrations of GSK3-inhibitors or DMSO vehicle for 90 min. […] Lysates were assayed for glycogen synthase activity in buffer (50 mM Tris-HCl, pH 7.8, 20 mM EDTA, 25 mM NaF, 5 mM DTT, 1% glycogen, 0.3 mM UDP-glucose and 0.06 μCi of [^14C]-UDP-glucose in the presence of 0.1 or 10 mM glucose-6-phosphate. The reaction was carried out for 30 min at 30° C. 70 μL of the reaction mixture (total volume 90 μL) were transferred to a GFC 96-well filter plate (bottom sealed with foil), containing 140 μL 96% ethanol. The GFC plate was incubated for 1 h on ice and than washed with 66% ethanol. To each well 100 μL scintillant liquid was added and the radioactivity of the samples was measured using a scintillation counter (Topcount, HP). Data are expressed as -fold increase in glycogen synthase activity ratios over those of control samples.

Test [2] has as its target T1, CDK1/cyclin B1 (Homo sapiens, UniProt P06493).
T1 construct: His6 (N); made in house; host or cells: Sf9 insect cells (baculovirus)
Put plainly: CDK/cyclin kinase assay, CDK1/cyclin B1. Format: biochemical. The protocol:
CDK4/cyclin D1, CDK1/cyclin B, CDK2/cyclin E, CDK2/cyclin A, CDK9/cyclin T1 and CDK7/cyclin H, all with a His6 tag on the N-terminus, were expressed in Sf9 insect cells using an appropriate baculovirus construct. Sf9 culture (1.6×10^6 cells/mL) was infected (MOI of 3) for two days. The cells were harvested by low speed centrifugation and the protein was purified from the insect cell pellet by metal affinity chromatography. In short: the insect cell pellet was lysed in Buffer A (10 mM Tris-HCl pH 8.0, 150 mM NaCl, 0.02% NP-40, 5 mM β-mercaptoethanol, 20 mM NaF, 1 mM Na3VO4, and Sigma Protease Inhibitor Cocktail) by sonication. The soluble fraction was cleared by centrifugation and loaded onto Ni-NTA-Agarose (Qiagen). Non-bound protein was washed off with 300 mM NaCl, 5-15 mM imidazole in buffer A and the bound protein was eluted with buffer A supplemented with 250 mM imidazole. The purified proteins were extensively dialyzed against storage buffer (20 mM HEPES pH 7.4, 50 mM NaCl, 2 mM DTT, 1 mM EDTA, 1 mM EGTA, 0.02% NP-40, 10% v/v glycerol) and stored at −70° C.
Compounds were investigated for their CDK2/cyclin E, CDK2/cyclin A, CDK1/cyclin B, and CDK4/cyclin D1 inhibitory activity. His6-tagged recombinant human cyclin-dependent kinases CDK1/cyclin B1, CDK2/cyclin E, CDK2/cyclin A, and CDK4 were expressed in sf9 insect cells using a baculovirus expression system. Recombinant cyclin D1 was expressed in E. coli. Proteins were purified by metal chelate affinity chromatography to greater than 90% homogeneity. Kinase assays were performed in 96-well plates using recombinant CDK/cyclins. Assays were performed in assay buffer (25 mM β-glycerophosphate, 20 mM MOPS, 5 mM EGTA, 1 mM DTT, 1 mM […], pH 7.4), into which were added 2-4 μg of active enzyme with appropriate substrates (purified histone H1 for CDK1 and CDK2, recombinant GST-retinoblastoma protein (residues 773-928) for CDK4). The reaction was initiated by addition of Mg/ATP mix (15 mM MgCl2+100 μM ATP with 30-50 kBq per well of [γ-^32P]-ATP) and mixtures incubated for 10-45 min, as required, at 30° C. Reactions were stopped on ice, followed by filtration through p81 or GF/C filterplates (for CDK4) (Whatman Polyfiltronics, Kent, UK). After washing 3 times with 75 mM aq orthophosphoric acid, plates were dried, scintillant added and incorporated radioactivity measured in a scintillation counter (TopCount, Packard Instruments, Pangbourne, Berks, UK). Compounds for kinase assays were made up as 10 mM stocks in DMSO and diluted into 10% DMSO in assay buffer. Data was analysed using curve-fitting software (GraphPad Prism version 3.00 for Windows, GraphPad Software, San Diego Calif. USA) to determine IC50 values (concentration of test compound which inhibits kinase activity by 50%).

Test [3] deals with T2, CHK1 (Homo sapiens, UniProt O14757).
T2 construct: Dundee University (screening panel)
Nature of the test: Protein kinase panel selectivity screen, CHK1. It counts as biochemical. To be noted: 1 μM compound; [ATP] 20 μM. The protocol: (§1) The names of the 29 kinases comprising the selectivity screen, as well as the ATP concentrations used in each kinase case, are given in Table 5. The kinase assays were carried out as described previously.
(§2) Compound XIV at a concentration of 1 μM was screened in the 29-kinase panel (Dundee University) and the results are shown bellow in Table 6.

Test [4] addresses T3, PKBdelta PH (Homo sapiens, UniProt P31749, S473D).
T3 construct: Dundee University (panel)
Put plainly: Protein kinase panel selectivity screen, PKBdelta PH. Format: biochemical. As to conditions: 1 μM compound; [ATP] 5 μM. The protocol: as §1, §2

Test [5] addresses T4, DYRK1a (Homo sapiens, UniProt Q13627).
T4 construct: Dundee University (screening panel)
Nature of the test: Protein kinase panel selectivity screen, DYRK1a. It counts as biochemical. As to conditions: 1 μM compound; [ATP] 50 μM. As to the method:
as §1, §2

The target in test [6] is T5, MAPKAP-K1a (Homo sapiens, UniProt Q15418).
T5 construct: Dundee University (panel)
Nature of the test: Protein kinase panel selectivity screen, MAPKAP-K1a. As to conditions: 1 μM compound; [ATP] 50 μM. It counts as biochemical. The protocol: as §1, §2

The target in test [7] is T6, MKK1 (Homo sapiens, UniProt Q02750).
T6 construct: Dundee University (panel)
Put plainly: Protein kinase panel selectivity screen, MKK1. Format: biochemical. As to conditions: 1 μM compound; [ATP] 5 μM. The protocol: as §1, §2

The target in test [8] is T7, PDK1 (Homo sapiens, UniProt O15530).
T7 construct: Dundee University (panel)
Nature of the test: Protein kinase panel selectivity screen, PDK1. Format: biochemical. To be noted: 1 μM compound; [ATP] 20 μM. The protocol: as §1, §2

Test [9] has as its target T8, GSK3b (Homo sapiens, UniProt P49841).
T8 construct: Dundee University (panel)
Nature of the test: Protein kinase panel selectivity screen, GSK3b. It counts as biochemical. As to conditions: 1 μM compound. As to the method: as §1, §2

Molecules are shown by their SMILES.

T1 sequence (P06493 whole entry): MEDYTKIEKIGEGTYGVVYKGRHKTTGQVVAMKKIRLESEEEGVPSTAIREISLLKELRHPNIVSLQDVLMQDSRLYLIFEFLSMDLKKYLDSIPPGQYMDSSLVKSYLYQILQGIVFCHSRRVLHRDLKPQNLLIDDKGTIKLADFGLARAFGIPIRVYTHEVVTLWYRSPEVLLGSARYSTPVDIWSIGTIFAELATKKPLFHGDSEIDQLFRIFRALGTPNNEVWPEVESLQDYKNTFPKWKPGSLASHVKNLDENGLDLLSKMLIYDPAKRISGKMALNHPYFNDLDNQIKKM
T1 sequence (P14635 whole entry partner): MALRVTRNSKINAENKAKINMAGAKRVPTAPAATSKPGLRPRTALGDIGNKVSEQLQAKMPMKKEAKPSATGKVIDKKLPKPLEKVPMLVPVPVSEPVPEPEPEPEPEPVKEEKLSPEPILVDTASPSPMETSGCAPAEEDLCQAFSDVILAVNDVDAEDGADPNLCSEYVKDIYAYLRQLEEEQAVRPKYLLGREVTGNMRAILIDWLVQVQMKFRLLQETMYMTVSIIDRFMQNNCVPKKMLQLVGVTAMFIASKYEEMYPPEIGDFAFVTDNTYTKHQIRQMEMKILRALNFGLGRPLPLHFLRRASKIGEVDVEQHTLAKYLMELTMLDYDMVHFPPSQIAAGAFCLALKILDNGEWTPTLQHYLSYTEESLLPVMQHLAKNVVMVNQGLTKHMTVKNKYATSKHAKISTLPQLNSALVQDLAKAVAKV
T8 sequence (P49841 whole entry, species assumed): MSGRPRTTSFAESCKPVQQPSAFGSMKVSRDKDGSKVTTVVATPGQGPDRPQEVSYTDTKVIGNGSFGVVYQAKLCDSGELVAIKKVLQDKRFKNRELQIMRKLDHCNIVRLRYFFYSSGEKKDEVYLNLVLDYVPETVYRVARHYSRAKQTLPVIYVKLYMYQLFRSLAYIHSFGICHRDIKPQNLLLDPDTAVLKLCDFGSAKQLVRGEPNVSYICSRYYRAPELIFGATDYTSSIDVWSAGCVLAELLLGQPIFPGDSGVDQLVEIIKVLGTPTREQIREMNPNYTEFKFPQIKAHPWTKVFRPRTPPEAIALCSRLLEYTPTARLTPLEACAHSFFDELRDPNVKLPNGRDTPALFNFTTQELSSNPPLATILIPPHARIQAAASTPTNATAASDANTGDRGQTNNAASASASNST
T3 sequence (P31749 118-480 S473D limits assumed): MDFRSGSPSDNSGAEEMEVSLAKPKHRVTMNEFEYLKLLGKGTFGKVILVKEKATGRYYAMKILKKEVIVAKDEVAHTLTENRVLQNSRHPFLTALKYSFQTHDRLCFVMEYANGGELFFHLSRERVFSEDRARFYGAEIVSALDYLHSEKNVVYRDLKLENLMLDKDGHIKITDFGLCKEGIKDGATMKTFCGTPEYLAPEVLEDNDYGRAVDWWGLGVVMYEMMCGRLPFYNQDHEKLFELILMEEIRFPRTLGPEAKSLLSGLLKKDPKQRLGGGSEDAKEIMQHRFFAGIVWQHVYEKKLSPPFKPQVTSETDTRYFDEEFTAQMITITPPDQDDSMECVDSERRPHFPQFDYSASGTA
T7 sequence (O15530 whole entry): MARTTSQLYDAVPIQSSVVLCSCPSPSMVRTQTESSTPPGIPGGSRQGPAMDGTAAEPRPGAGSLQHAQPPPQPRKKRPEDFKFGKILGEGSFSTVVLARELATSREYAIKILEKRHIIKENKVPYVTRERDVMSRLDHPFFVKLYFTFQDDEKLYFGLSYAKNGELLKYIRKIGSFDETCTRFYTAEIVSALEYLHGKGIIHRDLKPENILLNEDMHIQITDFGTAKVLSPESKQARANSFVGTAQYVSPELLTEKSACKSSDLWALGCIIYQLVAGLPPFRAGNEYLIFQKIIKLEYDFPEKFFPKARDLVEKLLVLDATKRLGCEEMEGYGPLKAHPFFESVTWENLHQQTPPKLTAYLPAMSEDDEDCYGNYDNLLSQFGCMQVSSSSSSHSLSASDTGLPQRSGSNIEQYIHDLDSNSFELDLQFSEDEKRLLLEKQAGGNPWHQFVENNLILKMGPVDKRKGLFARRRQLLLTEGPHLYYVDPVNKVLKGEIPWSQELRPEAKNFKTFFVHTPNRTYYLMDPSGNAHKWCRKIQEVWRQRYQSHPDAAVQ
T5 sequence (Q15418 whole entry, species assumed): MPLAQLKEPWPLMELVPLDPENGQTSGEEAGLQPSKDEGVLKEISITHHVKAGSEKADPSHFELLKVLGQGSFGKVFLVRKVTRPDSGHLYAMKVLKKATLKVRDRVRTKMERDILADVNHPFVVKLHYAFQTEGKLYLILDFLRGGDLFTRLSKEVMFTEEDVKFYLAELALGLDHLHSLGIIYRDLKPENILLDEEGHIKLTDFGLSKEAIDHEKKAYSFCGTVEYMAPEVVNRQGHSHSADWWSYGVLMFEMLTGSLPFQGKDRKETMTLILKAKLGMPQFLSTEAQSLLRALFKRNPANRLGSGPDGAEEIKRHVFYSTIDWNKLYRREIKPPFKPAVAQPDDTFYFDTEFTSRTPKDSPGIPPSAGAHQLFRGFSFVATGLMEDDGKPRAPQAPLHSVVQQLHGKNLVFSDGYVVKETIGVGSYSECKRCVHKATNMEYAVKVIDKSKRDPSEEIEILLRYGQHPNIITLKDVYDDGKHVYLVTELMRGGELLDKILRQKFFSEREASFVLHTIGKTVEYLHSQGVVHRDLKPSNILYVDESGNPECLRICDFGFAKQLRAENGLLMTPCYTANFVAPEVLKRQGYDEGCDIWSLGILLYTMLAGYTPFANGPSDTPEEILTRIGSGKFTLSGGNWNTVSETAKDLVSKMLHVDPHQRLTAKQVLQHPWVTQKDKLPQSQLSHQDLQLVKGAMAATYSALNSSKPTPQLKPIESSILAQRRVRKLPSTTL
T6 sequence (Q02750 whole entry, species assumed): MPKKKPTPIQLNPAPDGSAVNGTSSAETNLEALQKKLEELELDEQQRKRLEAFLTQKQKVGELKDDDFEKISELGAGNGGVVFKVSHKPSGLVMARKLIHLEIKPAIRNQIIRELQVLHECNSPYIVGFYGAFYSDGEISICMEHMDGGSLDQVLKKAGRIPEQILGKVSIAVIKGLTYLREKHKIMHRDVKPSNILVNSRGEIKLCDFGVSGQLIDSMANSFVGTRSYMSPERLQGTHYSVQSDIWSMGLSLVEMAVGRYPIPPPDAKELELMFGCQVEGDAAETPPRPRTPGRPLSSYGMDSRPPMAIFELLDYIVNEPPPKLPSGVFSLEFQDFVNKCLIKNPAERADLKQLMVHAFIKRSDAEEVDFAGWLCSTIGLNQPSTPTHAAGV
T2 sequence (O14757 whole entry, species assumed): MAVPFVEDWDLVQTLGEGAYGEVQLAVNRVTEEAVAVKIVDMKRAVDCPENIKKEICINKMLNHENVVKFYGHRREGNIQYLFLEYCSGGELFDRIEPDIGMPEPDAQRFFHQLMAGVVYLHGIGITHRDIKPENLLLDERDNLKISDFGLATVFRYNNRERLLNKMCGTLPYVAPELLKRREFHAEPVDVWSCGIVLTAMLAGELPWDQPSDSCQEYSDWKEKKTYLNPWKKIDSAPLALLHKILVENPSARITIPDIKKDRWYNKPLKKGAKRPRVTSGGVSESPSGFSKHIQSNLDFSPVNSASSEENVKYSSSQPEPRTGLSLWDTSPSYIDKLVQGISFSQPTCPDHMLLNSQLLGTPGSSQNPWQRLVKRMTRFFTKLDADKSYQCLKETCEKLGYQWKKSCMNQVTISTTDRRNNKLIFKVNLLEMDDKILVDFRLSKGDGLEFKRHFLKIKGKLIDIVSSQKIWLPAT

`Clc1ccc(Nc2nccc(-c3nccs3)n2)cn1` [Compound XIV, (6-Chloro-pyridin-3-yl)-(4-thiazol-2-yl-pyrimidin-2-yl)-amine]: the EC50 in test [1] (Rattus norvegicus, L6 myocytes, from dose-response curves, read-out: EC50 activation of glycogen synthase) was 4 ± 1.5 µM. In addition, the “Activity of glycogen synthase (fractional velocity)” value in [1] (rat myocyte cells, ratio of activity at 0.1 and 10 mM glucose-6-phosphate) is given as “increased the activity of glycogen synthase”. Further, the “Fold selectivity for GSK3 over CDK1/cyclin B” value in test [2] (from Ki) is recorded as >6,250 fold. The Ki in test [2] (read-out: Ki CDK1/cyclin B) was more than 100 µM. Further, in test [2] (read-out: Kinase inhibition IC50 CDK1/B1), the IC50 is more than 100 µM. The activity at 1 µM in test [3] is 78 ± 4%; in test [4] it was 98 ± 1%; in [5] it was 74 ± 8%; in [6], 60 ± 1%; in test [7], 83 ± 4%; in test [8], 85 ± 5%. The molecule further came in with an activity at 1 µM in test [9] ([ATP] 5 μM) of 13 ± 5%. Also, the “Selectivity in the 29-kinase panel” value in test [9] is “highly selective for GSK3”.
